Converted amounts (≈) assume the structure as drawn.
Legend:
[1] = test system: Mycobacterium tuberculosis; assay: Antimycobacterial activity against Mycobacterium tuberculosis ATCC 27294 in radiometric culture at 50 ug/ml by NCCLS method; assay type: functional
[2] = test system: Mycobacterium tuberculosis; assay: Antimycobacterial activity against Mycobacterium tuberculosis ATCC 27294 in radiometric culture by NCCLS method; assay type: functional

| Structure (SMILES) | inhibition at 50 µg/mL [1] [%] | MIC [2] [µg/mL] |
| --- | --- | --- |
| COc1cc(O)c2c(O)c3c(=O)cc(C)oc3cc2c1C [QUINQUANGULIN] | 99 | 12 (≈ 41.9 µM) |
| COc1cc(O)c2c(O)c3c(=O)cc(C)oc3cc2c1 [RUBROFUSARIN] | 99 | 12 (≈ 44.1 µM) |
